Assay results from ChEMBL document CHEMBL1201862, “PubChem BioAssay data set” (2004).
The source made the active and inactive calls.

How the values were obtained:
Vero = test: Vero cell toxicity, dose response, cytotoxicity control, plate reader, cherry-pick samples (AID 687020); format: functional, cell-based; conditions: Chlorocebus sabaeus
[1] = biological target: Metabotropic glutamate receptor 3 (Rattus norvegicus, UniProt P31422); test: mGlu3 NAM potency via calcium readout, dose response, mGlu3 NAM project, TREx293 cells, Galpha15, calcium flux (AID 651840); format: functional
INS1 = test: beta cell apoptosis inhibitors, cytokine rescue, dose response, luminescence, retest (AID 449756); format: functional, cell-based; conditions: Rattus norvegicus, INS1;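 further: cell death triggered by IL-1 beta plus TNF-alpha plus IFN-gamma mixture; protective hits raise ATP signal compared with cytokine alone wells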
[2] = Shn3 3'UTR reporter inhibitors, dose response, cell-based, Clone20 osteoblasts, firefly luciferase, cherry-picked (AID 624132); format: functional;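 further: firefly luciferase luminescence from reporter carrying the Shn3 3'UTR in osteoblasts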
[3] = HepG2 cell cytotoxicity, dose response, cytotoxicity control for Shn3 inhibitor project, CellTiter-Glo, cherry-picked (AID 624134); format: functional, cell-based
[4] = control 3'UTR Renilla luciferase suppression, dose response, counter-screen for Shn3 inhibitor project, cell-based, Clone20-Shn3RL, cherry-picked (AID 624133); format: functional
[5] = reduction of Shn3 3'UTR firefly luciferase signal, dose response, Schnurri-3 inhibitor project, cell-based, Clone20 osteoblasts, cherry-pick, set 2 (AID 720490); format: functional;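 further: actives lower the luminescence signal as inhibitors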
[6] = inhibitors of control Renilla luciferase reporter, dose response, counter-screen for Shn3 3'UTR targeting project, Clone20-Shn3RL cells, dual-Glo, cherry-pick, set 2 (AID 720724); format: functional, cell-based; conditions: Dual-Go Shn3RL
[7] = HepG2 cell cytotoxicity, dose response, cytotoxicity control, cherry-picks, set 5 (AID 1053118); format: functional, cell-based
[8] = biological target: T1, Beta-2 adrenergic receptor (Homo sapiens, UniProt P07550); test: Dose response for HTS for Beta-2AR agonists via FAP method from Powderset1.; format: functional
[9] = biological target: T1, Beta-2 adrenergic receptor; test: beta2AR agonists driving receptor internalization, dose response, cell-based, FAP fluorogen, flow cytometry, cherry pick 1 (AID 588763); format: functional
[10] = biological target: Potassium channel subfamily K member 9 (Homo sapiens, UniProt Q9NPC2); test: TASK3 (KCNK9) channel inhibitors, thallium flux, SAR follow-up, selectivity assay for TASK1 inhibitor project, cell-based, FluxOR thallium flux, concentration-response (AID 652211); format: functional;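 further: potency is for inhibitors of the channel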
[11] = biological target: 1-phosphatidylinositol 4,5-bisphosphate phosphodiesterase gamma-1 (Homo sapiens, UniProt P19174); test: Counterscreen for inhibitors of phospholipase C isozymes (PLC-B3): Fluorescence-based biochemical high throughput dose response assay to identify inhibitors of phospholipase C isozymes (PLC-gamma1).
[12] = biological target: 1-phosphatidylinositol 4,5-bisphosphate phosphodiesterase beta-3 (Homo sapiens, UniProt Q01970); test: Fluorescence-based biochemical high throughput dose response assay to identify inhibitors of phospholipase C isozymes (PLC-B3).
HEK293 [13] = test: NOD1 signaling inhibitors, primary screen, cell-based, luminescence, uHTS (AID 1578); format: functional; conditions: Homo sapiens
HEK293 [14] = test: cells; format: functional, cell-based; conditions: Homo sapiens
HEK293 [15] = test: cells; format: functional, cell-based; conditions: Homo sapiens; remark: listed apart in the source
HEK293 [16] = test: NOD2 signaling inhibitors in MDP-stimulated cells, cell-based, uHTS, luminescence (AID 2001); format: functional; conditions: Homo sapiens
[17] = biological target: ADP-ribosylation factor GTPase-activating protein 1 (Rattus norvegicus, UniProt Q62848); test: Fluorescence polarization-based biochemical high throughput dose response screening assay to identify inhibitors of ADP-ribosylation factor GTPase activating protein 1 (ARFGAP1).; format: functional
[18] = biological target: Arf-GAP with SH3 domain, ANK repeat and PH domain-containing protein 1 (Homo sapiens, UniProt Q9ULH1); format: functional;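 further: biochemical fluorescence polarization dose–response screen measuring inhibition of ASAP1; ASAP1 GAP domain stimulating GTP hydrolysis by truncated human ARF1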
Galanin receptor type 3 = Galanin receptor type 3 (Homo sapiens, UniProt O60755); test: Fluorescence-based cell-based primary high throughput dose response assay to identify antagonists of the Galanin Receptor 3 (GalR3).; format: functional
cells = format: functional, cell-based; conditions: HEK-CNG
Mu-type opioid receptor = Mu-type opioid receptor (Homo sapiens, UniProt P35372); format: functional, cell-based;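 further: U2OS cells with beta-arrestin recruitment to OPRM1 by beta-gal complementation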
[19] = biological target: 5-hydroxytryptamine receptor 2A (Mus musculus, UniProt P35363); format: functional, cell-based;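 further: CHO-K1 cells with tagged receptor and beta-arrestin; agonist potency measured as compound-induced activation of the receptor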
Chain of 5-hydroxytryptamine receptor 2A (P35363 whole entry): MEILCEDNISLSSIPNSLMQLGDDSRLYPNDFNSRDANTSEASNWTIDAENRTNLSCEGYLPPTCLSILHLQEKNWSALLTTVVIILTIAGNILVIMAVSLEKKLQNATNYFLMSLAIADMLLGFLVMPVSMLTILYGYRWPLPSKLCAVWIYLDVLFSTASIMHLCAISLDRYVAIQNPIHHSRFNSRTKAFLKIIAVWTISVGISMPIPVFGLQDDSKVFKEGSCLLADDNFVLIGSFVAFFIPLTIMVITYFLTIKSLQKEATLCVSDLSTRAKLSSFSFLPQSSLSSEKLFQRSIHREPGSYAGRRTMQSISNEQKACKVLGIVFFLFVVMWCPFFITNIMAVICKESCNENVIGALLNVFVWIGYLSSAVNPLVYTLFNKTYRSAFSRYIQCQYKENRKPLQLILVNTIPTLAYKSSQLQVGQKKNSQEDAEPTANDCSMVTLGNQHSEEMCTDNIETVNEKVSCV

T1 sequence (P07550 whole entry): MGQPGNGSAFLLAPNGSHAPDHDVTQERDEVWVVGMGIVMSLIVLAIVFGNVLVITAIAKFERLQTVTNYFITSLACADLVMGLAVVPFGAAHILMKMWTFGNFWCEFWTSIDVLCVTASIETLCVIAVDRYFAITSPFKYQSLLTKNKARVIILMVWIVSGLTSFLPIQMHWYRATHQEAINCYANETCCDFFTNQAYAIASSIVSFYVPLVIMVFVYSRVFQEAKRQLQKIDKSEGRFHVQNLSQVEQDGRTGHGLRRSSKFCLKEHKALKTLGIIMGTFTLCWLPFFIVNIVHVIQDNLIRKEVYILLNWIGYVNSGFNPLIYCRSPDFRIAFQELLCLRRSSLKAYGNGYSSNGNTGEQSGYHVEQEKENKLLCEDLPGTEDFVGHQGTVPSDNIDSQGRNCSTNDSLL
Chain of Galanin receptor type 3 (O60755 whole entry): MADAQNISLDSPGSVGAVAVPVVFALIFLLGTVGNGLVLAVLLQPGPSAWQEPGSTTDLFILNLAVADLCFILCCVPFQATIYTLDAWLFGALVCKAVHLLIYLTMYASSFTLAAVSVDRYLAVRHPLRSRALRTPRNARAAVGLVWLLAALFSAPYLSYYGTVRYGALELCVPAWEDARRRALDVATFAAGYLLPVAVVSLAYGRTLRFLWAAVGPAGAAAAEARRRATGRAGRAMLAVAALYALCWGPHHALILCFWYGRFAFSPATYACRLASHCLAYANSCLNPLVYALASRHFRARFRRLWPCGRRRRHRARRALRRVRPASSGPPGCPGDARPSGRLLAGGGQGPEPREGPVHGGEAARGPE
Chain of Metabotropic glutamate receptor 3 (P31422 whole entry): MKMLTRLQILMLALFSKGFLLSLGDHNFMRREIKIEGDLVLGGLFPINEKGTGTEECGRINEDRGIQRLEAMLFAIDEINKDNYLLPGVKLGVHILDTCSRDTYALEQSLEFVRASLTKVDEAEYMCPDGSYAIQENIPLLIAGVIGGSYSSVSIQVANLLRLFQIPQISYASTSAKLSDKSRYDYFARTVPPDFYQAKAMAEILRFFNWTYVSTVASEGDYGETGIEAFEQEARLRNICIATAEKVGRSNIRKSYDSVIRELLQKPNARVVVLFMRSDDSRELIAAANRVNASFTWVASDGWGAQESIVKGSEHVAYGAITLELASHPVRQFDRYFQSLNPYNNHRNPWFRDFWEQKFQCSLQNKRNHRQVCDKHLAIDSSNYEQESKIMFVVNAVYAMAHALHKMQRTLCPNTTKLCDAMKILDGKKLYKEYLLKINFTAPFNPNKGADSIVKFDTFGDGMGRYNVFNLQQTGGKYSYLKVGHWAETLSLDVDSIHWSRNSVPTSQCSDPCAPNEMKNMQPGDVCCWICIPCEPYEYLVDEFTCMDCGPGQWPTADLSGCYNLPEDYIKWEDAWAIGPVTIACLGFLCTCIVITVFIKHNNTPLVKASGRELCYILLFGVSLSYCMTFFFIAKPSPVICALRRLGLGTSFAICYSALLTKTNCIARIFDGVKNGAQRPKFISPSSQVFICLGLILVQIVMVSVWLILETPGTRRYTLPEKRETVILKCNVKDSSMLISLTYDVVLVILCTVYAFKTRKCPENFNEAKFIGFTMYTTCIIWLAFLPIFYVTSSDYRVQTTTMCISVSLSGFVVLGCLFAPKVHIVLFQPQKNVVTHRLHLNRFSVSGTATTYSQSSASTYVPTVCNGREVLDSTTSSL
Chain of 1-phosphatidylinositol 4,5-bisphosphate phosphodiesterase gamma-1 (P19174 whole entry): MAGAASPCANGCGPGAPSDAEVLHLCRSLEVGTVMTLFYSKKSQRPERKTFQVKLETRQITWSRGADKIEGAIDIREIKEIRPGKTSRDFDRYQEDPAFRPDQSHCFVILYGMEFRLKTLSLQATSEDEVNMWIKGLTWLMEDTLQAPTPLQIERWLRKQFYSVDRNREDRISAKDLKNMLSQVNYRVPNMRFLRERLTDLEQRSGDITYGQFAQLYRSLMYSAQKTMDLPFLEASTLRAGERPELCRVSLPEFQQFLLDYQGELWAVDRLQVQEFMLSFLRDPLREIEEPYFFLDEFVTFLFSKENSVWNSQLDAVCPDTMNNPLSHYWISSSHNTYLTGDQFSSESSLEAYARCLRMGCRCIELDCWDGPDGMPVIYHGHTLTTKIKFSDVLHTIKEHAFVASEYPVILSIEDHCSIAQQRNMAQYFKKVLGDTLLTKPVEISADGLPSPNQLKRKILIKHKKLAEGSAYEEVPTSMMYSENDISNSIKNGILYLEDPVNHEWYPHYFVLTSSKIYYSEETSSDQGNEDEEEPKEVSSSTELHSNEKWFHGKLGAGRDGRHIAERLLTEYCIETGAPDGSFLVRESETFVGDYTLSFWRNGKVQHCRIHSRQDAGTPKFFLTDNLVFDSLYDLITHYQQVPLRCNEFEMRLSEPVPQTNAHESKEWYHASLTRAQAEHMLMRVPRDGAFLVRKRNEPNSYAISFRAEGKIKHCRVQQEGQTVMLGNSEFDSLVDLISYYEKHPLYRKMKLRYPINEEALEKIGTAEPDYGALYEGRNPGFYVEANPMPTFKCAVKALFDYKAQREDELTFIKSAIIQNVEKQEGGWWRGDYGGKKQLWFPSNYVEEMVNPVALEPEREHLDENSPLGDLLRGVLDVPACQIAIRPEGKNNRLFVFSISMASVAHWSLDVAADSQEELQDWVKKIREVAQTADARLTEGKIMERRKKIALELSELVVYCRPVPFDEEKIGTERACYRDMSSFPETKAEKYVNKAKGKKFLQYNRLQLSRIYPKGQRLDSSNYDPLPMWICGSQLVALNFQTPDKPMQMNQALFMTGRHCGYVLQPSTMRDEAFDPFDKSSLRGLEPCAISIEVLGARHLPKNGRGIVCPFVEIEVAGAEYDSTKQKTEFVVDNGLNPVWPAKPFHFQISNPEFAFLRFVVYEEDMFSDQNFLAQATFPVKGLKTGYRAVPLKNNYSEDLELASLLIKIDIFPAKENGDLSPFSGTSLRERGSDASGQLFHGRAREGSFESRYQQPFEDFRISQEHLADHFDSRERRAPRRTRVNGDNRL
Chain of 1-phosphatidylinositol 4,5-bisphosphate phosphodiesterase beta-3 (Q01970 whole entry): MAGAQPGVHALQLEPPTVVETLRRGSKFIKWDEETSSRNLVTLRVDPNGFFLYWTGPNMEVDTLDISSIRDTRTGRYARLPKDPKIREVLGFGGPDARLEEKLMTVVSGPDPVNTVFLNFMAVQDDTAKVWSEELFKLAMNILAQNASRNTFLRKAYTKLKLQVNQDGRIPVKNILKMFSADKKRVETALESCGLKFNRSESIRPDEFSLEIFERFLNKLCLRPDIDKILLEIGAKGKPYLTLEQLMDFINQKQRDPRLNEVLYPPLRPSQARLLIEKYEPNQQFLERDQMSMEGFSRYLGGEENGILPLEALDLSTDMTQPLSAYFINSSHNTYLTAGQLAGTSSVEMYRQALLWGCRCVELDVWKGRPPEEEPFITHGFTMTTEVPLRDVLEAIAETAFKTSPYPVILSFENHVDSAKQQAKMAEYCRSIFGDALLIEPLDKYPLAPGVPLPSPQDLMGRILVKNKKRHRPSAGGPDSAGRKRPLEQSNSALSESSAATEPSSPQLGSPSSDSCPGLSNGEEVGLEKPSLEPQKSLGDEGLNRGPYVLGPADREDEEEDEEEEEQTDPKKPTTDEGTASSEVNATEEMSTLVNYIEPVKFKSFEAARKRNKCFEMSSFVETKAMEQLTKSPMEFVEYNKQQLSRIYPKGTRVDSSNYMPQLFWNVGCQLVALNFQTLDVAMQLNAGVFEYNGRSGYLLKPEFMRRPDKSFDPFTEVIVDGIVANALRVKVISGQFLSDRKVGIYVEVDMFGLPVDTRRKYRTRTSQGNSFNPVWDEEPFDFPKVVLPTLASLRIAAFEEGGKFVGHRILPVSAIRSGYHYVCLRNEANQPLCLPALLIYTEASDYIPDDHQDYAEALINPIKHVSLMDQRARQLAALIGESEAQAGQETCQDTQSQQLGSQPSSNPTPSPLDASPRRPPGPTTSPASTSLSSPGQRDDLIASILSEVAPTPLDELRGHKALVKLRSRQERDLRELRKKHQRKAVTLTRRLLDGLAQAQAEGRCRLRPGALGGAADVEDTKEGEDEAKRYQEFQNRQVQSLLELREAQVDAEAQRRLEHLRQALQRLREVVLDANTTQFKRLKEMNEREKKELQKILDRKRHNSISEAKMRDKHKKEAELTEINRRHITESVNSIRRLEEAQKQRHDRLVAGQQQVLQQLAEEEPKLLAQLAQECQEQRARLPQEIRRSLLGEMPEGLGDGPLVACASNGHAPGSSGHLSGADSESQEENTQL
Chain of ADP-ribosylation factor GTPase-activating protein 1 (Q62848 whole entry, the tested form may be a part): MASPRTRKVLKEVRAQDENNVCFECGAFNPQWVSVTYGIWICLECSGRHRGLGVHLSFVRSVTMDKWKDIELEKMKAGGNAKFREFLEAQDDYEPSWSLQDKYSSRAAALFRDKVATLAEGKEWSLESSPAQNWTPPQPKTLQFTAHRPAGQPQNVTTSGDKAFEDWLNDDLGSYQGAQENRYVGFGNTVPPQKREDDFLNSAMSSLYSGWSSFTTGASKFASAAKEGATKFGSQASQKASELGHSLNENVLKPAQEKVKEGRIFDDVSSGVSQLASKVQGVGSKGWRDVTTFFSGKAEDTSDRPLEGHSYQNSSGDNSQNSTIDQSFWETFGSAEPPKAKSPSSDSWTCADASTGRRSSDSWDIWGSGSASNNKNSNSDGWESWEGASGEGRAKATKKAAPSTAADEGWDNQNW

Compound: Cc1cc(C)n2c(Nc3c(C)cccc3C)c(CCc3ccccc3)nc2n1
- AC50 (Vero): 33.3 µM (active)

Compound: COc1ccc(C#Cc2ccc(C(=O)N3CCC[C@@H](O)C3)c(F)c2)cc1
- IC50 [1]: 0.509 µM

Compound: CC(=O)N1c2ccc(S(=O)(=O)N3CCC(C(=O)N4CCN(c5cccc(C(F)(F)F)c5)CC4)CC3)cc2CC1C (centres undefined)
- AC50 (INS1): 7.43 µM (active)
- AC50 [2]: 1.28 µM (active)
- AC50 [3]: > 70 µM (inactive)
- AC50 [4]: 4.45 µM (active)
- AC50 [5]: 1.54 µM (active)
- AC50 [6]: 1.47 µM (active)

Compound: N#C[C@H]1[C@@H](c2ccccc2C2=CCCCC2)[C@H](CO)N1S(=O)(=O)c1ccccc1
- AC50 [7]: > 47 µM (inactive)

Compound: CC(C)(C)c1ccc(OCC(=O)Nc2ccc(-c3nc4cccnc4o3)cc2)cc1
- EC50 [8]: 0.0199 µM (active)
- EC50 [9]: 0.0672 µM (active)

Compound: O=C(Nc1cccc(NC(=O)c2ccccn2)c1)c1ccccc1
- IC50 [10]: 5.37 µM (active)

Compound: O=C(C[S+]([O-])c1cccc(C(F)(F)F)c1)Nc1ccc(Cl)cc1Cl (centres undefined)
- IC50 [11]: 56.9 µM (inactive)
- IC50 [12]: > 122 µM (inactive)

Compound: Clc1cccc(Cl)c1CONC=Nc1ncnc2sccc12
- EC50 (HEK293 [13]): > 20 µM (inactive)
- IC50 (HEK293 [14]): 7.79 µM (active)
- IC50 (HEK293 [15]): > 20 µM (inactive)
- IC50 (HEK293 [16]): 8.22 µM (active)
- IC50 [17]: 30.3 µM (inactive)
- IC50 [18]: 12.3 µM (inactive)

Compound: CNc1ccccc1C(C)(C)c1cc(-c2ccc(F)cc2)no1
- IC50 (Galanin receptor type 3): 3.74 µM (active)
- EC50 (cells): > 29.9 µM (inactive)

Compound: OCC1(Cc2ccc(Cl)cc2)CCN(CCCc2ccccc2)CC1
- EC50 (Mu-type opioid receptor): 92.5 µM (inactive)
- EC50 [19]: 76.1 µM (inactive)
